# Measured values from ChEMBL document CHEMBL1799932, “Antimalarial pyrido[1,2-a]benzimidazoles” (J Med Chem, 2011).
# Assays:
# [1] = Selectivity index, ratio IC50 for rat L6 cells to IC50 for multidrug-resistant Plasmodium falciparum K1 infected in human red blood cells; assay type: functional
# [2] = tested on: L6; assay: Cytotoxicity at rat L6 cells after 72 hrs by microplate alamar blue assay; assay type: cell-based
# [3] = Distribution coefficient, log D of the compound at pH 7.4; assay type: physicochemical; conditions: octanol/water
# [4] = tested on: Plasmodium falciparum; assay: microbe, parasite or virus in culture; conditions: K1
# Description: (§1) Antimalarial activity against multidrug-resistant Plasmodium falciparum K1 infected in human red blood cells assessed as 3H-hypoxanthine incorporation after 48 hrs by liquid scintillation counting
# [5] = tested on: Plasmodium berghei; assay: Antimalarial activity against GFP-transfected Plasmodium berghei strain ANKA infected in NMRI mouse assessed as reduction in parasitemia at 50 mg/kg/day, ip administered for 4 consecutive days measured 24 hrs after last treatment by FACS analysis relative to control; assay type: functional; set-up: scale not given: the % may be the effect or the level left; conditions: route intraperitoneal
# [6] = tested on: Plasmodium falciparum
# Description: as §1
# [7] = tested on: Plasmodium falciparum; assay: microbe, parasite or virus in culture; conditions: HB3
# Description: Antimalarial activity against Plasmodium falciparum HB3
# [8] = tested on: Plasmodium falciparum; assay: microbe, parasite or virus in culture; conditions: FCR-3/Gambia
# Description: Antimalarial activity against Plasmodium falciparum FCR3
# [9] = tested on: Plasmodium falciparum; assay: microbe, parasite or virus in culture; conditions: Mad20/Papua New Guinea
# Description: Antimalarial activity against Plasmodium falciparum Mad20
# [10] = tested on: Plasmodium falciparum; assay: microbe, parasite or virus in culture; conditions: NF54
# Description: Antimalarial activity against Plasmodium falciparum NF54
# [11] = tested on: Plasmodium falciparum; assay: microbe, parasite or virus in culture; conditions: K1; remark: listed apart in the source
# Description: Antimalarial activity against Plasmodium falciparum K1
# [12] = Metabolic stability in mouse liver microsomes assessed as intrinsic clearance per mg protein after 60 mins by LC-MS analysis; assay type: ADME, Microsome
# [13] = Metabolic stability in human liver microsomes assessed as intrinsic clearance per mg protein after 60 mins by LC-MS analysis; assay type: ADME, Microsome
# [14] = Metabolic stability in rat liver microsomes assessed as intrinsic clearance per mg protein after 60 mins by LC-MS analysis; assay type: ADME, Microsome
# [15] = Metabolic stability in human liver microsomes assessed as degradation half life after 60 mins by LC-MS analysis; assay type: ADME, Microsome
# [16] = Metabolic stability in rat liver microsomes assessed as degradation half life after 60 mins by LC-MS analysis; assay type: ADME, Microsome
# [17] = Metabolic stability in mouse liver microsomes assessed as degradation half life after 60 mins by LC-MS analysis; assay type: ADME, Microsome
SMILES,Ratio IC50 [1],"IC50 ([2]; Rattus norvegicus, L6, 72 h)",logD [3],IC50 [4],other results
CN(C)CCCNc1cc(-c2cccc(F)c2)c(C#N)c2nc3ccccc3n12,29,15400 nM,1.54,530 nM,
CN(C)CCNc1cc(-c2ccc(C(F)(F)F)cc2)c(C#N)c2nc3ccccc3n12,>1600,> 210000 nM,2.45,130 nM,
CCN(CC)CCCNc1cc(-c2ccccc2)c(C#N)c2nc3ccccc3n12,>150,> 230000 nM,2,1530 nM,
CN(C)CCCNc1cc(-c2cccc(C(F)(F)F)c2)c(C#N)c2nc3ccccc3n12.Cl.Cl,,,,,IC50 ([2]; l6): 19200 nM; Activity [5]: 0%; IC50 [6]: 490 nM
C[C@@H]1CC[C@H]2[C@@H](C)C(=O)O[C@@H]3O[C@@]4(C)CC[C@@H]1[C@]32OO4 [ARTEMISININ],,,,6 nM,IC50 [7]: 3 nM; IC50 [8]: 5 nM; IC50 [9]: 8 nM
N#Cc1c(-c2ccc(C(F)(F)F)cc2)cc(NCCCN2CCOCC2)n2c1nc1ccccc12,80.6,98300 nM,3.79,1220 nM,
N#Cc1c(-c2ccc(C(F)(F)F)cc2)cc(NCCCN)n2c1nc1ccccc12,6.8,6260 nM,1.46,920 nM,
N#Cc1c(-c2cccc(C(F)(F)F)c2)cc(NCCCN)n2c1nc1ccccc12,6.9,4330 nM,1.46,630 nM,
CCN(CC)CCNc1cc(-c2ccc(F)cc2)c(C#N)c2nc3ccccc3n12,226,56500 nM,1.9,250 nM,
CCN(CC)CCNc1cc(-c2ccccc2)c(C#N)c2nc3ccccc3n12,108,120000 nM,1.89,1110 nM,
CCN(CC)CCNc1cc(C(F)(F)F)c(C#N)c2nc3ccccc3n12,63.7,121000 nM,2.51,1900 nM,
CCN(CC)CCNc1cc(-c2cccc(C(F)(F)F)c2)c(C#N)c2nc3ccccc3n12,243,102000 nM,2.94,420 nM,
Cc1cc(N2CCN(Cc3ccccc3)CC2)n2c(nc3ccccc32)c1C#N,,,,,IC50 [10]: 52 nM; IC50 [11]: 50 nM
N#Cc1c(-c2cccc(C(F)(F)F)c2)cc(NCCN)n2c1nc1ccccc12,11.7,11700 nM,1.8,1000 nM,
N#Cc1c(-c2ccc(C(F)(F)F)cc2)cc(NCCN2CCCC2)n2c1nc1ccccc12,2751,146000 nM,2.58,53 nM,
Cl.N#Cc1c(-c2ccc(C(F)(F)F)cc2)cc(NCCCN2CCOCC2)n2c1nc1ccccc12,,,,,microsomal CLint [12]: 87 µL/min/mg; microsomal CLint [13]: 166 µL/min/mg; microsomal CLint [14]: 234 µL/min/mg; half-life [15]: 10.4 min; half-life [16]: 7.4 min; half-life [17]: 19.9 min
CN(C)CCNc1cc(-c2ccc(Cl)cc2)c(C#N)c2nc3ccccc3n12,62.9,19500 nM,2.05,310 nM,
CN(C)CCCNc1cc(-c2cccc(C(F)(F)F)c2)c(C#N)c2nc3ccccc3n12,474,180000 nM,2.49,380 nM,
CN(C)CCNc1cc(-c2ccc(C(F)(F)F)cc2)c(C#N)c2nc3ccccc3n12.Cl,,,,,IC50 ([2]; l6): 147000 nM; Activity [5]: 0%; IC50 [6]: 100 nM
CN(C)CCNc1cc(-c2ccc(F)cc2)c(C#N)c2nc3ccccc3n12,70,19600 nM,1.41,280 nM,
Cl.N#Cc1c(-c2ccc(C(F)(F)F)cc2)cc(NCCN2CCOCC2)n2c1nc1ccccc12,,,,,microsomal CLint [12]: 65.2 µL/min/mg; microsomal CLint [13]: 109 µL/min/mg; microsomal CLint [14]: 108 µL/min/mg; half-life [15]: 15.9 min; half-life [16]: 16 min; half-life [17]: 26.6 min
CCN(CC)CCCNc1cc(-c2ccc(F)cc2)c(C#N)c2nc3ccccc3n12,122,86600 nM,1.93,710 nM,
N#Cc1c(-c2ccc(C(F)(F)F)cc2)cc(NCCN2CCCCC2)n2c1nc1ccccc12,3581,193000 nM,3.78,54 nM,
CCN(CC)CCNc1cc(-c2cccc(F)c2)c(C#N)c2nc3ccccc3n12,225,124000 nM,1.99,550 nM,
